From US10183949B2, “Pyrimidinone derivative having autotaxin-inhibitory activity” (The University of Tokyo, priority 2014, dated 2019) come the findings set out here.

By IC50 is commonly meant the concentration needed to halve the response being measured.

This test has as its target T1, Human autotaxin enzyme (Homo sapiens, UniProt Q13822).
T1 construct: purchased R&D System
Kind of test: Evaluation of autotaxin inhibitor, 18:0 Lyso PC / choline assay (Test Example 2). Format: biochemical. The settings on record: human autotaxin enzyme, 18:0 Lyso PC substrate, choline assay, room temperature 2 hours; read-out: Inhibitor activity (IC50). On the procedure:
Solution B containing 100 mM Tris-HCl buffer (pH7.5), 150 mM NaCl, 5 mM MgCl2, and 0.05% Triton X-100 was prepared. Human autotaxin enzyme (purchased from R&D System) was diluted with Solution B, and 2.5 μl of which was added to a solution of test compound in DMSO. Furthermore, 2.5 μl of 200 μM 18:0 Lyso PC (purchased from Avanti Polar Lipids) in Solution B was added and allowed to react at room temperature for 2 hours. After completion of the reaction, 15 μl of the coline assay reagent. (100 mM Tris-HCl buffer (pH7.5), 5 mM. MgCl2, 77 μg/ml coline oxidase, 10 μg/ml peroxydase, 25μM 10-acetyl-3,7-dihydroxyphenoxazine, and excess autotaxin inhibitor) was added and allowed to react at room temperature for 20 minutes. The fluorescent dye Resorufin, which was produced by the reaction, was detected. The fluorescence was detected using ViewLux
(PerkinElmer, Inc.) with a excitation wavelength of 531 nm and a fluorescence wavelength of 598 nm.
The percent inhibition of the test compound was calculated by assuming the sample with no test compound as 0% inhibition and the sample with no enzyme as 100% inhibition, and the percent inhibitions at different concentrations of the test compound were plotted to obtain a concentration-dependent curve.

Some results are limits rather than exact numbers.

Consider `COCCCc1nc(-c2ccc(Cl)cc2)cc(=O)n1CC(=O)NC1(C#N)CC1` [Compound I-0229], for which the IC50 lay within 100 to 1000 nM.

In the case of `CCCCCc1nc(-c2ccc(Cl)cc2)cc(=O)n1CC(=O)NCc1ccccc1C(=O)O` [Compound I-0054], the IC50 lay in the range of 100 to 1000 nM.

With `COC(=O)Nc1cc(C#N)ccc1-c1cc(=O)n(CC(=O)NCC2CNC(=O)C2)c(C)n1` (centres unmarked) [Compound I-0428], the IC50 lay in the range of 10 to 100 nM.

In the case of `CC1(O)CN(C(=O)Cn2c(CCCC(F)(F)F)nc(-c3ccc(C(F)(F)F)cc3)cc2=O)C1` [Compound I-0320], the IC50 was in the range of 100 to 1000 nM.

Regarding `CC(=O)NCCNC(=O)c1cccc(Cn2c(CCCC(F)(F)F)nc(-c3ccc(Cl)cc3)cc2=O)c1` [Compound I-0156], the 50% inhibitory concentration (IC50) was in the range of 100 to 1000 nM.

Turning to `COC(=O)Nc1cc(C#N)ccc1-c1cc(=O)n(CC(=O)N2CCC(C(N)=O)CC2)c(C)n1` [Compound I-0445], the IC50 is < 10 nM.

`CCCCCc1nc(-c2ccc(Cl)cc2)cc(=O)n1CC(=O)NC(Cc1ccccc1)C(=O)O` (centres unmarked) [Compound I-0024]: the concentration for half-maximal inhibition (IC50) is < 10 nM.

As to `O=C(Cn1c(=O)cc(-c2ccc(Cl)cc2)[nH]c1=O)NC(Cc1ccccc1)C(=O)O` (centres unmarked) [Compound I-0150], the IC50 was ≥ 1000 nM.

Take `CNC(=O)c1cccc(Cn2c(CCCC(F)(F)F)nc(-c3ccc(Cl)cc3)cc2=O)c1` [Compound I-0180]: the IC50 is 100 to 1000 nM.

In the case of `O=C(O)Cn1c(CCCC(F)(F)F)nc(-c2ccc(Cl)cc2)cc1=O` [Compound I-0110], the IC50 is ≥ 1000 nM.

Regarding `COCCCc1nc(-c2ccc(Cl)cc2)cc(=O)n1CC(=O)NCC(C)(C)O` [Compound I-0230], the IC50 lay in the range of 100 to 1000 nM.

With `CC(C)(C)OC(=O)Cn1c(CCCC(F)(F)F)nc(-c2ccc(C(F)(F)F)nc2)cc1=O` [Compound I-0304], the IC50 was 10 to 100 nM.

In the case of `COC(=O)Nc1cc(C#N)ccc1-c1cc(=O)n(CC(=O)N2CC(C)(O)C2)c(C)n1` [Compound I-0398], the IC50 lay within 100 to 1000 nM.

As to `CCCCCc1nc(-c2ccc(Cl)cc2)cc(=O)n1CC(=O)N[C@H]1C[C@H](C(=O)O)C1` [Compound I-0071], the IC50 is < 10 nM.

Consider `CC(C)(C)C(=O)Nc1cc(Cl)ccc1-c1cc(=O)n(CC(=O)NCC2(CO)COC2)c(CCC(F)(F)F)n1` [Compound I-0360], for which the IC50 lay in the range of 100 to 1000 nM.

Regarding `O=C(Cn1c(CCCC(F)(F)F)nc(-c2ccc(C(F)(F)F)cc2)cc1=O)NCc1ccc(O)nc1` [Compound I-0340], the IC50 fell in the range of 100 to 1000 nM.

Regarding `N#CC1(NC(=O)Cn2c(CCCC(F)(F)F)nc(-c3ccc(Cl)cc3)c(F)c2=O)CC1` [Compound I-0218], the IC50 is 100 to 1000 nM.

As for `NC(=O)CNC(=O)c1cccc(Cn2c(CCCC(F)(F)F)nc(-c3ccc(Cl)cc3)cc2=O)c1` [Compound I-0168], the IC50 fell in the range of 100 to 1000 nM.

`CCCOCc1nc(-c2ccc(Cl)cc2)cc(=O)n1CC(=O)NCC(C)(C)O` [Compound I-0213]: the IC50 was in the range of 100 to 1000 nM.

For `CC(C)(C)C(=O)Nc1cc(Cl)ccc1-c1cc(=O)n(Cc2cccc(C(=O)NCC(N)=O)c2)cn1` [Compound I-0478], the half-inhibitory concentration (IC50) lay within 100 to 1000 nM.

On to `Cn1c(=O)cc(-c2ccc(Cl)cc2)n(CCCC#N)c1=N` [Compound I-0108], for which the IC50 is ≥ 1000 nM.

Regarding `COC(=O)Nc1cc(Cl)ccc1-c1cc(=O)n(CC(=O)NC(C)(C)C(F)(F)F)c(C)n1` [Compound I-0457], the IC50 is < 10 nM.

Consider `CCCCCc1nc(-c2ccc(Cl)cc2)cc(=O)n1CC(=O)N1CCOCC1c1ccccc1` (centres unmarked) [Compound I-0076], for which the IC50 fell in the range of 100 to 1000 nM.

For the molecule `CCCCCc1nc(-c2ccc(Cl)cc2)cc(=O)n1CC(=O)N1CCC(c2ccccc2C(=O)O)CC1` [Compound I-0046], the IC50 lay in the range of 10 to 100 nM.

With `Cc1nc(CNC(=O)c2cccc(Cn3c(CCCC(F)(F)F)nc(-c4ccc(Cl)cc4)cc3=O)c2)no1` [Compound I-0189], the concentration for half-maximal inhibition (IC50) fell in the range of 100 to 1000 nM.

For the molecule `CCCCCc1nc(-c2ccc(Cl)cc2)cc(=O)n1CC(=O)NC1(C(=O)O)CCCC1` [Compound I-0057], the IC50 was in the range of 10 to 100 nM.

In the case of `O=C(Cn1c(CCCC(F)(F)F)nc(-c2ccc(C(F)(F)F)cc2)cc1=O)N1CCOC(CO)C1` (centres unmarked) [Compound I-0338], the IC50 lay in the range of 10 to 100 nM.

On to `CCCOCc1nc(-c2ccc(Cl)cc2)cc(=O)n1CC(=O)NC1(C#N)CC1` [Compound I-0203], for which the IC50 fell in the range of 100 to 1000 nM.

As for `CNS(=O)(=O)CCNC(=O)Cn1c(C)nc(-c2ccc(Cl)cc2NC(=O)C2CC2)cc1=O` [Compound I-0474], the IC50 is 10 to 100 nM.

Turning to `Cc1nc(-c2ccc(F)cc2NC(=O)C2CC2)cc(=O)n1Cc1cccc(C(=O)O)c1` [Compound I-0270], the IC50 lay in the range of 10 to 100 nM.

Take `O=C(Cn1c(CCCC(F)(F)F)nc(-c2ccc(C(F)(F)F)cc2)cc1=O)N1CCS(=O)(=O)CC1` [Compound I-0349]: the IC50 fell in the range of 10 to 100 nM.

In the case of `O=C(Cn1cnc(-c2ccc(Cl)cc2)cc1=O)NCCCNC(=O)c1cn[nH]n1` [Compound I-0402], the half-inhibitory concentration (IC50) was ≥ 1000 nM.

In the case of `Cc1nc(-c2ccc(Cl)cc2NC(=O)C2CC2)cc(=O)n1CC(=O)NC(C)C` [Compound I-0391], the IC50 was 10 to 100 nM.

With `CCCCCc1nc(-c2ccc(Cl)cc2)cc(=O)n1CC(=O)N(CCC(=O)O)C1CCCC1` [Compound I-0062], the half-inhibitory concentration (IC50) was 10 to 100 nM.

Regarding `O=C(Cn1c(CCCC(F)(F)F)nc(-c2ccc(Cl)cc2CO)cc1=O)NCC1(CO)CC1` [Compound I-0328], the IC50 lay in the range of 10 to 100 nM.

Turning to `CNC(=O)CN1CCC(NC(=O)Cn2c(CCCC(F)(F)F)nc(-c3ccc(Cl)cc3)cc2=O)CC1` [Compound I-0129], the concentration for half-maximal inhibition (IC50) fell in the range of 100 to 1000 nM.

In the case of `CCCCCc1nc(-c2ccc(Cl)cc2)cc(=O)n1CC(=O)N1CC2(COC2)C1` [Compound I-0091], the IC50 is ≥ 1000 nM.

As for `CCCCCc1nc(-c2ccc(Cl)cc2)cc(=O)n1CC(=O)N(C)CCO` [Compound I-0029], the 50% inhibitory concentration (IC50) was 100 to 1000 nM.

With `COC(=O)Nc1cc(C#N)ccc1-c1cc(=O)n(CC(=O)NCC(C)(C)O)c(C)n1` [Compound I-0399], the half-maximal inhibitory concentration (IC50) is 10 to 100 nM.

Consider `N#CC1(NC(=O)Cn2c(CCCC(F)(F)F)nc(-c3ccc(Cl)cc3O)cc2=O)CC1` [Compound I-0226], for which the IC50 was in the range of 100 to 1000 nM.

Take `CC(C)(O)CNC(=O)Cn1c(CCCC(F)(F)F)nc(-c2ccc(C(F)(F)F)cc2)cc1=O` [Compound I-0321]: the IC50 was 10 to 100 nM.

As for `COC(=O)Nc1cc(Cl)ccc1-c1cc(=O)n(CC(=O)N(C(C)C)C(C)C)c(C)n1` [Compound I-0276], the IC50 was in the range of 10 to 100 nM.

In the case of `O=C(NCc1cccnc1O)c1cccc(Cn2c(CCCC(F)(F)F)nc(-c3ccc(Cl)cc3)cc2=O)c1` [Compound I-0193], the IC50 was in the range of 100 to 1000 nM.

With `CC(C)(C)OC(=O)Cn1c(CCCC(F)(F)F)nc(-c2ccc(Cl)cc2F)cc1=O` [Compound I-0284], the concentration for half-maximal inhibition (IC50) was in the range of 10 to 100 nM.

As for `O=C(Cn1c(CCCC(F)(F)F)nc(-c2ccc(Cl)cc2)cc1=O)NCc1cc(=O)[nH]o1` [Compound I-0120], the IC50 is < 10 nM.

Turning to `O=C(Cn1c(CCCC(F)(F)F)nc(-c2ccc(C(F)(F)F)cc2)cc1=O)NCC1CCC(=O)N1` (centres unmarked) [Compound I-0335], the IC50 lay in the range of 10 to 100 nM.

For `O=C(O)c1ccc(Cn2c(CCCC(F)(F)F)nc(-c3ccc(Cl)cc3)cc2=O)o1` [Compound I-0280], the 50% inhibitory concentration (IC50) is 10 to 100 nM.

Regarding `Cc1nc(-c2ccc(C#N)cc2NC(=O)C(C)(C)C)cc(=O)n1CC(=O)NC1(c2nc(=O)o[nH]2)CC1` [Compound I-0385], the IC50 is 10 to 100 nM.

Regarding `CCCCCc1nc(-c2ccc(Cl)cc2)cc(=O)n1CC(=O)NC(C)(C)C(=O)OC` [Compound I-0114], the 50% inhibitory concentration (IC50) was in the range of 10 to 100 nM.

For the molecule `COC(=O)Nc1cc(Cl)ccc1-c1cc(=O)n(CC(=O)N(C)C(C)(C)CO)c(C)n1` [Compound I-0277], the IC50 is 10 to 100 nM.

As to `CC(C)(O)CNC(=O)Cn1c(CCCC(F)(F)F)nc(-c2ccc(Cl)cc2)cc1=O` [Compound I-0134], the IC50 was < 10 nM.

On to `COC(=O)Nc1cc(Cl)ccc1-c1cc(=O)n(CC(=O)NC(C)C)c(C)n1` [Compound I-0390], for which the 50% inhibitory concentration (IC50) was 10 to 100 nM.

For the molecule `N#CC1(NC(=O)Cn2c(CCCC(F)(F)F)nc(-c3ccc(C(F)(F)F)cc3)cc2=O)CC1` [Compound I-0225], the IC50 was < 10 nM.

Take `CC(C)(O)CNC(=O)c1cccc(Cn2c(CCCC(F)(F)F)nc(-c3ccc(Cl)cc3)cc2=O)c1` [Compound I-0187]: the IC50 is 100 to 1000 nM.

As for `CCCCCc1nc(-c2ccc(Cl)cc2)cc(=O)n1CC(=O)N1CCC(c2nc(=O)o[nH]2)CC1` [Compound I-0382], the IC50 fell in the range of 10 to 100 nM.

Consider `CCCCCc1nc(-c2ccc(Cl)cc2)cc(=O)n1Cc1cccc(C(=O)O)c1` [Compound I-0009], for which the IC50 is 10 to 100 nM.

Take `CCCCCc1nc(-c2ccc(Cl)cc2)cc(=O)n1CC(=O)NC(C)C(=O)O` (centres unmarked) [Compound I-0039]: the IC50 is 10 to 100 nM.

As for `CC(C)(O)CNC(=O)Cn1c(COCC2CC2)nc(-c2ccc(Cl)cc2)cc1=O` [Compound I-0214], the IC50 was 100 to 1000 nM.

For `CNC(=O)NC1CCN(C(=O)Cn2c(C)nc(-c3ccc(C#N)cc3NC(=O)OC)cc2=O)CC1` [Compound I-0381], the half-inhibitory concentration (IC50) lay in the range of 10 to 100 nM.

For the molecule `COC(=O)Nc1cc(C#N)ccc1-c1cc(=O)n(CC(=O)NC(C)(C)C)c(C)n1` [Compound I-0372], the IC50 lay in the range of 10 to 100 nM.

As for `CCCCCc1nc(-c2ccc(Cl)cc2)cc(=O)n1CC(=O)NC12CCC(C(=O)O)(CC1)CC2` [Compound I-0072], the IC50 is < 10 nM.

Regarding `O=C(c1cccc(Cn2c(CCCC(F)(F)F)nc(-c3ccc(Cl)cc3)cc2=O)c1)N1CCOCC1` [Compound I-0160], the IC50 was 10 to 100 nM.
